PubChem BioAssay AID1963447 (Molecular Pharmacology Branch, DTP, NCI, 2024)
Where “and” joins values, the source holds several entries; their conditions need not be identical. Equal entries are not always repeated.

System: 885512-296-R-J2-PDC complex spheroid growth, % test/control
Assay: Anticancer human tumor 885512-296-R-J2-PDC patient-derived breast carcinoma cell line growth inhibition [Asc]
Conditions: for viability, T/C: stronger effect = lower value; active means viability on the fitted dose curve at most 10% of control; inactive means the rest
Experimental: Multicellular complex tumor spheroid response to apoptosis pathway targeting inhibitors Alrizomadlin, Pelcitoclax, and Dasminapant in combination with a variety of drugs and investigational agents in selected tumor cell lines
The MDM2 inhibitor alrizomadlin, the Bcl-2/Bcl-xL inhibitor pelcitoclax, and the IAPs inhibitor dasminapant were evaluated both individually and in combination with standard of care and investigational anticancer small molecules within a complex spheroid model of solid tumors. . Complex spheroids include a stromal component modeled by human endothelial cells (HUVEC) and fibroblasts modeled by human mesenchymal stem cells (MSCs). The concentration ranges selected for each drug and investigational agent were based upon clinically achievable concentrations if the clinical Cmax of the agent was known.
Compounds. The drugs and investigational agents: alrizomadlin (APG-115; NSC831270), pelcitoclax (APG-1252; NSC835773), dasminapant (APG-1387;NSC834197), TAK-243 (NSC785004), copanlisib (NSC809693), olaparib (NSC753686), talazoparib (NSC767125), cobimetinib (NSC 768068), eltanexor (KPT-8602, NSC 794443), abemaciclib (NSC 768073), sotorasib (NSC818433), adagrasib (NSC 831453), MRTX-1133 (NSC 836407), Iadademestat (ORY1001, NSC 806812), and RMC-4630 (NSC839698), were obtained from the NCI Developmental Therapeutics Program Chemical Repository. The FDA-approved anticancer drug set is available from the Developmental Therapeutics Program at https://dtp.cancer.gov/organization/dscb/obtaining/available plates.htm. […] The stock solutions were prepared in dimethyl sulfoxide (DMSO, Sigma-Aldrich, St. Louis, MO, cat. D2650) at 800-fold the tested concentration and stored at -70 degrees C prior to their use. All drugs and investigational agents were tested over a range starting from a high concentration at or near the clinical Cmax and decreasing in half-log increments. If the clinical Cmax for an agent had not been determined, the highest concentration tested was 10 microM.
The patient-derived cancer (PDC) cell lines include five colon adenocarcinomas: 186277-243-T-J2-PDC, 616215-338-R-J1-PDC, 439559-082-T-J2-PDC, 463943-066-T-J2-PDC, and 519858-162-T-J1-PDC; three pancreatic carcinomas: 323965-272-R-J2-PDC, 521955-158-R6-J3-PDC, and 521955-158-R2-J5-PDC; two uterine sarcomas: 327498-152-R-J2-PDC and 993429-296-R-J1-PDC; two rhabdomyosarcomas: 755483-174-R-J1-PDC and 772245-204-R-J1-PDC; two soft tissue sarcomas: 126254-015-R-J1-PDC and 494315-158-R-J1-PDC; two malignant fibrous histiocytomas: 317291-083-R-J1-PDC and 596521-263-R-J1-PDC; two breast carcinomas: 171881-019-R-J1-PDC and 885512-296-R-J2-PDC; and one ovarian carcinoma: 6556581-035-R-J-PDC were obtained from the NCI PDMR, (https://pdmr.cancer.gov). The established cell lines HSSY-2 synovial sarcoma (RRID:CVCL 8719), SYO-1 synovial sarcoma (RRID:CVCL_7146), MPNST malignant peripheral neural sheath tumor were obtained from the Sloan Kettering Institute. The following established cell lines were purchased from the American Type Culture Collection (ATCC, Manassas, VA), Sor the received from the NCI repository:, PANC-1 pancreatic carcinoma (CRL-1469, RRID:CVCL_0480), OVCAR-5 ovarian carcinoma (RRID:CVCL_1628), OVCAR-8 ovarian carcinoma (RRID:CVCL_1629), , MCF-7 breast carcinoma (CRL-12584, RRID:CVCL_0031), MDA-MB-231 breast carcinoma (CRL-12532, RRID:CVCL_0062), NCI-H1876 small cell lung carcinoma (CRL-5902, RRID:CVCL_1503), NCI-H510A small cell lung carcinoma (HTB-184, RRID:CVCL_1565), NCI-H1417 (CRL-5869, RRID:CVCL_1469), and NCI-H196 small cell lung carcinoma (CRL-5823, RRID:CVCL_1509). Dr. Peter Houghton (Greehey Children's Cancer Research Institute, University of Texas Health Science Center, San Antonio, TX) provided Rh-18 rhabdomyosarcoma (RRID:CVCL_1659). Pooled donor human umbilical vein endothelial cells (HUVEC, Lonza, cat. CC-2519) and human mesenchymal stem cells (hMSC, Lonza, cat. PT-2501) were purchased from Lonza (Walkersville, MD).
Cell Culture. […]
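Further: spheroids exposed to compounds for seven days.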
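Wherever viability, T/C is given: 100% = DMSO vehicle control wells.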

C=CC(=O)N1CCN(c2nc(=O)n(-c3c(C)ccnc3C(C)C)c3nc(-c4c(O)cccc4F)c(F)cc23)C(C)C1 (stereo not given) + Cc1c(S(C)(=O)=O)c(-c2cc(F)cc(N3CCN(c4ccc(NS(=O)(=O)c5ccc(NC(CCN6CCC(C(=O)OCCCP(=O)(O)O)CC6)CSc6ccccc6)c(S(=O)(=O)C(F)(F)F)c5)cc4)CC3)c2)c(-c2ccc(Cl)cc2)n1C(C)C
> 10000 nM: IC50 (curve of first compound, second compound 0.1 µM) | IC50 (curve of first compound, second compound 0.316 µM) | IC50 (curve of first compound, second compound 1 µM) | IC50 (curve of first compound, second compound 3.16 µM) | IC50 (curve of first compound, second compound 10 µM)
inactive: viability, T/C (second compound 0.1 µM, first compound 0.0316 µM) 85.3% | viability, T/C (second compound 0.1 µM, first compound 0.1 µM) 80.7% | viability, T/C (second compound 0.1 µM, first compound 0.316 µM) 92.2% | viability, T/C (second compound 0.1 µM, first compound 1 µM) 83.6% | viability, T/C (second compound 0.1 µM, first compound 3.16 µM) 87.6% | viability, T/C (second compound 0.1 µM, first compound 10 µM) 55.8% | viability, T/C (second compound 0.316 µM, first compound 0.0316 µM) 94.3% | viability, T/C (second compound 0.316 µM, first compound 0.1 µM) 87.2% | viability, T/C (second compound 0.316 µM, first compound 0.316 µM) 86.8% | viability, T/C (second compound 0.316 µM, first compound 1 µM) 81.2% | viability, T/C (second compound 0.316 µM, first compound 3.16 µM) 101% | viability, T/C (second compound 0.316 µM, first compound 10 µM) 74.7% | viability, T/C (second compound 1 µM, first compound 0.0316 µM) 80.6% | viability, T/C (second compound 1 µM, first compound 0.1 µM) 73.5% | viability, T/C (second compound 1 µM, first compound 0.316 µM) 93.3% | viability, T/C (second compound 1 µM, first compound 1 µM) 104% | viability, T/C (second compound 1 µM, first compound 3.16 µM) 85.7% | viability, T/C (second compound 1 µM, first compound 10 µM) 62% | viability, T/C (second compound 3.16 µM, first compound 0.0316 µM) 98.7% | viability, T/C (second compound 3.16 µM, first compound 0.1 µM) 90.3% | viability, T/C (second compound 3.16 µM, first compound 0.316 µM) 109% | viability, T/C (second compound 3.16 µM, first compound 1 µM) 106% | viability, T/C (second compound 3.16 µM, first compound 3.16 µM) 90.2% | viability, T/C (second compound 3.16 µM, first compound 10 µM) 68.3% | viability, T/C (second compound 10 µM, first compound 0.0316 µM) 119% | viability, T/C (second compound 10 µM, first compound 0.1 µM) 117% | viability, T/C (second compound 10 µM, first compound 0.316 µM) 114% | viability, T/C (second compound 10 µM, first compound 1 µM) 114% | viability, T/C (second compound 10 µM, first compound 3.16 µM) 98.8% | viability, T/C (second compound 10 µM, first compound 10 µM) 71.6%

CNC(C)C(=O)NC1CN(S(=O)(=O)c2cccc(S(=O)(=O)N3CCC4CCC(C(=O)NC(c5ccccc5)c5ccccc5)N4C(=O)C(NC(=O)C(C)NC)C3)c2)CCC2CCC(C(=O)NC(c3ccccc3)c3ccccc3)N2C1=O (stereo not given)
> 1000 nM: IC50 (compound alone, run of 10/03/2022) | IC50 (curve of compound)
inactive: viability, T/C (compound 0.00316 µM) 84.1% and 81%

Cn1ncnc1[C@H]1c2n[nH]c(=O)c3cc(F)cc(c23)N[C@@H]1c1ccc(F)cc1 + CCN1C(C(=O)NC23CCC(C(=O)O)(CC2)CC3)C(c2cccc(Cl)c2F)C2(C(=O)Nc3cc(Cl)ccc32)C12CCCCC2
37.8 nM: IC50 (curve of first compound, second compound 0.03 µM)
< 0.316 nM: IC50 (curve of first compound, second compound 3 µM)
21 nM: IC50 (curve of first compound, second compound 0.3 µM)
23.5 nM: IC50 (curve of first compound, second compound 0.949 µM)
54.2 nM: IC50 (curve of first compound, second compound 0.0949 µM)
inactive: viability, T/C (second compound 0.03 µM, first compound 0.000316 µM) 88.7% | viability, T/C (second compound 0.03 µM, first compound 0.001 µM) 107% | viability, T/C (second compound 0.03 µM, first compound 0.00316 µM) 91.6% | viability, T/C (second compound 0.03 µM, first compound 0.01 µM) 66.9% | viability, T/C (second compound 0.03 µM, first compound 0.0316 µM) 58% | viability, T/C (second compound 0.03 µM, first compound 0.1 µM) 35.5% | viability, T/C (second compound 0.0949 µM, first compound 0.000316 µM) 91% | viability, T/C (second compound 0.0949 µM, first compound 0.001 µM) 101% | viability, T/C (second compound 0.0949 µM, first compound 0.00316 µM) 93.3% | viability, T/C (second compound 0.0949 µM, first compound 0.01 µM) 76.2% | viability, T/C (second compound 0.0949 µM, first compound 0.0316 µM) 57% | viability, T/C (second compound 0.0949 µM, first compound 0.1 µM) 43.1% | viability, T/C (second compound 0.3 µM, first compound 0.000316 µM) 80.5% | viability, T/C (second compound 0.3 µM, first compound 0.001 µM) 90.8% | viability, T/C (second compound 0.3 µM, first compound 0.00316 µM) 88% | viability, T/C (second compound 0.3 µM, first compound 0.01 µM) 60% | viability, T/C (second compound 0.3 µM, first compound 0.0316 µM) 49.2% | viability, T/C (second compound 0.3 µM, first compound 0.1 µM) 35.2% | viability, T/C (second compound 0.949 µM, first compound 0.000316 µM) 80.2% | viability, T/C (second compound 0.949 µM, first compound 0.001 µM) 72.6% | viability, T/C (second compound 0.949 µM, first compound 0.00316 µM) 63.1% | viability, T/C (second compound 0.949 µM, first compound 0.01 µM) 60.5% | viability, T/C (second compound 0.949 µM, first compound 0.0316 µM) 47.7% | viability, T/C (second compound 0.949 µM, first compound 0.1 µM) 35.3% | viability, T/C (second compound 3 µM, first compound 0.000316 µM) 43.9% | viability, T/C (second compound 3 µM, first compound 0.001 µM) 40.2% | viability, T/C (second compound 3 µM, first compound 0.00316 µM) 41.8% | viability, T/C (second compound 3 µM, first compound 0.01 µM) 38.4% | viability, T/C (second compound 3 µM, first compound 0.0316 µM) 40.2% | viability, T/C (second compound 3 µM, first compound 0.1 µM) 31.6%

NC(=O)C(=Cn1cnc(-c2cc(C(F)(F)F)cc(C(F)(F)F)c2)n1)c1cncnc1
active: viability, T/C (compound 0.3 µM) 3% and 0.88% and 1.21%
45.7 nM and 48.2 nM and 54.2 nM: IC50 (curve of compound)
inactive: viability, T/C (compound 0.000949 µM) 87.5% and 102% and 84.6% | viability, T/C (compound 0.003 µM) 85.7% and 110% and 93.3% | viability, T/C (compound 0.00949 µM) 101% and 108% and 96.6% | viability, T/C (compound 0.03 µM) 74.1% and 79.4% and 91.7%
8.08% and 8.06% and 10.7%: viability, T/C (compound 0.0949 µM)
